Data as given in patent publication US20250243344A1, “COMPOUND, RUBBER BLEND CONTAINING THE COMPOUND, VEHICLE TIRE COMPRISING THE RUBBER BLEND IN AT LEAST ONE COMPONENT, PROCESS FOR PREPARING THE COMPOUND, AND USE OF THE COMPOUND AS AN ANTI-AGING AGENT AND/OR ANTIOXIDANT” (Continental Reifen Deutschland GmbH, priority 2022, published 2025).

Assay: Measurement of oxidation induction time (OIT) by DSC
Details: for Time at 180° C. (time to oxidation, oxidation induction time): isothermal 180° C., with liquid polyisoprene LIR-50, O2 atmosphere 50 ml/min, DSC peak
Procedure: The compound of formula III) was investigated under laboratory conditions for its potential protective effect as an aging stabilizer by measurement of the oxidation induction time.
To this end the compounds of formula III) and 6PPD in each case together with a polymer (liquid synthetic polyisoprene (IR), LIR-50, Kuraray, weight average molecular weight distribution Mw=54 000 g/mol, glass transition temperature Tg=−63° C.) were heated at constant temperature (180° C.) until onset of oxidation (start temperature 35° C., heating to 170° C. at a heating rate of 20 K/min (kelvin per minute), heating to 180° C. at a heating rate of 1 K/min; purge gas: nitrogen (N2), volume flow 50 ml/min).
The specimen was kept under isothermal conditions at 180° C. under an N2 atmosphere for 5 minutes and the atmosphere was then switched to an O2 atmosphere (volume flow 50 ml/min).
Oxidation was determined via a peak using DSC (differential scanning calorimetry).
The time in minutes to oxidation was measured.

| SMILES | antioxidant effect compared to 6PPD (at 180° C., taking into account measurement accuracy of ± 10 minutes) | Time at 180° C. (time to oxidation, oxidation induction time) [min] |
| --- | --- | --- |
| CC(C)CC(C)Nc1ccc2[nH]c3c(c2c1)CCCC3 (stereo not drawn) [Formula III), 6-(1,3-dimethylbutylamino)-2,3,4,9-tetrahydro-1H-carbazole] | comparable antioxidant effect to 6PPD | 119 ± 10 |
| CC(C)CC(C)Nc1ccc(Nc2ccccc2)cc1 (stereo not drawn) [Formula 6PPD, N-(1,3-dimethylbutyl)-N′-phenyl-p-phenylenediamine, reference compound] |  | 116 ± 10 |
